# US9885713B2, “Diagnosis and treatment of mycobacteria infections” (priority 2013, dated 2018)
# B1: Gp-31: recombinant His-tagged Gp-31 protein of mycobacteriophage L5 (SEQ ID NO: 5) (protein)
# chain: MHHHHHHSSGLVPRGSGMKETAAAKFERQHMDSPDLGTDDDDKAMADIGSEFVTYPTNPLEAIGADGAFEIGGGDWSFGQDYTEQAIRALFTMPAVTMENALGLLEEHLLKLPLEALQGFKDMIPDWVEGAFDTVTGAVQAIMNALQDGPLFLKFAEFQLFLQRLLNNPAEVIGEIPQTLIDGLQDALNTVNNTIQTIVDMLLQALGITPEGELIDRIFDLSDEMEWLQTAASNAATGIQDTWNKFWGALTGRVPDQDQTVAEPAERIGELAGTTSANSSAIAELQRRLDNQQNAGGVAGGDDFERLNISGWDIRYSNGSSGRGYYRADGHQLVWMDEGNQQNTATFVRTNPADEKTATDYQKMTLVVGTISGEVQTVFPPQGGSHTRLWVRVNDNAPTVGITDGVFVEIGGVSKAQIGYRRNGNDTFVGSMVDCTWGAGSIFALTAGTANGAEKFEVSKNGPVLATWSDDGVVSAMGANYRRWGWEGQARNRNLGQGTPNSVTRVTITDNDPTGAGGGAVNVGGDVVGVLPIENGGTGASTASAARTALGIDDLVEDMSDVVRGSVEGLPLIPKIWVGTEAQYTALATKDQSTLYFRTA
# modifications: His tag
# Target: T1, Gp6 (Mycobacterium phage L5, UniProt Q05278, L15P)
# T1 construct: pET-30a(+) vector-encoded N-terminal leader (additional residues up to the EcoRI site) (N); made in house; host or cells: E. coli BL21(DE3)
# T1 sequence (Q05278 other isoform, or with tags, fused parts or gaps L15P): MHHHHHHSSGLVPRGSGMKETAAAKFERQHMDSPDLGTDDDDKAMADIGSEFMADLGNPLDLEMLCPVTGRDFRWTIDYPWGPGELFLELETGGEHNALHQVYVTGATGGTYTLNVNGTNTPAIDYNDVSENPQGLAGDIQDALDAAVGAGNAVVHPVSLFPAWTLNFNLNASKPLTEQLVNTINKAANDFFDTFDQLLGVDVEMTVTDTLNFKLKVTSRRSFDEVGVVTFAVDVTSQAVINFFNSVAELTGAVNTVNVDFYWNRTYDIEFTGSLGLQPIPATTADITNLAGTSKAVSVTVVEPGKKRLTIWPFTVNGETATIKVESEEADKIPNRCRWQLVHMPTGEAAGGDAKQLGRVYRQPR
# Test: Direct ESI-MS assay of carbohydrate binding
# Set-up: species or system mycobacteriophage L5
# Conditions: not given
# Protocol: Chemically synthesized fragments of mycobacterial arabinans and phenolic glycolypids were used to test the carbohydrate binding ability of recombinant Gp6. Association constants (Ka) for Gp6 binding to carbohydrate ligands were measured using the direct electrospray ionization mass spectrometry (ESI-MS) assay. The assay is based on the direct detection and quantification of the abundance of ligand-bound and unbound protein ions in the gas phase. All binding measurements were carried out at 25° C. and pH 7.2 using a 9.4T ApexQe FTICR mass spectrometer (Bruker, Billerica, Mass.). ESI was performed in aqueous ammonium acetate (100 mM) solutions prepared from stock solutions of protein and oligosaccharide. The single chain variable fragment (scFv) of the monoclonal antibody Se155-4 was used as reference protein to distinguish specific from nonspecific ligand binding with the protein during the ESI-MS measurements.
row,Molecule,Kd [µM]
1,"O=C(NCCCCCCCCO[C@H]1O[C@H](CO[C@H]2O[C@H](CO[C@H]3O[C@H](CO)[C@@H](O)[C@@H]3O[C@@H]3O[C@H](CO[C@H]4O[C@H](CO)[C@@H](O)[C@H](O)[C@@H]4O[C@H]4O[C@H](CO)[C@@H](O)[C@H](O)[C@@H]4O[C@H]4O[C@H](CO)[C@@H](O)[C@H](O)[C@@H]4O)[C@@H](O)[C@@H]3O)[C@@H](O)[C@@H]2O)[C@@H](O)[C@@H]1O)C(F)(F)F [compound 9, α-Manp-(1→2)-α-Manp-(1→2)-α-Manp-(1→5)-β-Araf-(1→2)-α-Araf-(1→5)-α-Araf-(1→5)-α-Araf-octyl-NHCOCF3]",385
2,"O=C(NCCCCCCCCO[C@H]1O[C@H](CO[C@H]2O[C@H](CO[C@H]3O[C@H](CO[C@H]4O[C@H](CO)[C@@H](O)[C@@H]4O)[C@@H](O)[C@@H]3O)[C@@H](O)[C@@H]2O)[C@@H](O)[C@@H]1O)C(F)(F)F [compound 8, α-Araf-(1→5)-α-Araf-(1→5)-α-Araf-(1→5)-a-Araf-octyl-NHCOCF3]",145
3,"COc1ccc(O[C@@H]2O[C@@H](C)[C@H](O)[C@@H](O[C@@H]3O[C@@H](C)[C@H](O)[C@@H](O[C@@H]4O[C@@H](C)[C@@H](OC)[C@@H](O)[C@@H]4OC)[C@H]3O)[C@H]2O)cc1 [compound 11, 2,4-di-O-CH3-α-Fucp-(1→3)-α-Rhap(1→3)-α-Rhap-OPMP]",333
4,"O=C(NCCCCCCCCO[C@H]1O[C@H](CO[C@H]2O[C@H](CO[C@H]3O[C@H](CO)[C@@H](O)[C@@H]3O[C@@H]3O[C@H](CO[C@H]4O[C@H](CO)[C@@H](O)[C@H](O)[C@@H]4O[C@H]4O[C@H](CO)[C@@H](O)[C@H](O)[C@@H]4O)[C@@H](O)[C@@H]3O)[C@@H](O)[C@@H]2O)[C@@H](O)[C@@H]1O)C(F)(F)F [compound 2, α-Manp-(1→2)-α-Manp-(1→5)-β-Araf-(1→2)-α-Araf-(1→5)-α-Araf-(1→5)-α-Araf-octyl-NHCOCF3]",227
5,"COc1ccc(O[C@@H]2O[C@@H](C)[C@H](O)[C@@H](O[C@@H]3O[C@@H](C)[C@H](O)[C@@H](O[C@@H]4O[C@@H](C)[C@@H](OC)[C@@H](OC)[C@@H]4OC)[C@H]3O)[C@H]2OC)cc1 [compound 10, 2,3,4-tri-O-CH3-α-Fucp-(1→3)-α-Rhap(1→3)-2-O-CH3-α-RhapOPMP]",1000 ± 500
6,"O=C(NCCCCCCCCO[C@H]1O[C@H](CO[C@H]2O[C@H](CO[C@H]3O[C@H](CO)[C@@H](O)[C@@H]3O[C@@H]3O[C@H](CO)[C@@H](O)[C@@H]3O)[C@@H](O[C@H]3O[C@H](CO)[C@@H](O)[C@@H]3O[C@@H]3O[C@H](CO)[C@@H](O)[C@@H]3O)[C@@H]2O)[C@@H](O)[C@@H]1O)C(F)(F)F [compound 3, β-Araf-(1→2)-α-Araf-(1→5)[β-Araf-(1→2)-α-Araf-(1→3)]-α-Araf-(1→5)-α-Araf-octyl-NHCOCF3]",278
7,"COc1ccc(O[C@@H]2O[C@@H](C)[C@H](O)[C@@H](O[C@@H]3O[C@@H](C)[C@H](O)[C@@H](O[C@@H]4O[C@@H](C)[C@@H](OC)[C@@H](OC)[C@@H]4OC)[C@H]3O)[C@H]2O)cc1 [compound 12, 2,3,4-tri-O-CH3-α-Fucp-(1→3)-α-Rhap(1→3)-α-RhapOpPMP]",286
8,"O=C(NCCCCCCCCO[C@H]1O[C@H](CO[C@H]2O[C@H](CO[C@H]3O[C@H](CO)[C@@H](O)[C@@H]3O)[C@@H](O)[C@@H]2O)[C@@H](O)[C@@H]1O)C(F)(F)F [compound 5, α-Araf-(1→5)-α-Araf-(1→5)-α-Araf-octyl-NHCOCF3]",132
9,"O=C(NCCCCCCCCO[C@H]1O[C@H](CO[C@H]2O[C@H](CO)[C@@H](O[C@H]3O[C@H](CO)[C@@H](O)[C@@H]3O[C@@H]3O[C@H](CO)[C@@H](O)[C@@H]3O)[C@@H]2O)[C@@H](O)[C@@H]1O)C(F)(F)F [compound 7, β-Araf-(1→2)-α-Araf-(1→3)-α-Araf-(1→5)-α-Araf-octyl-NHCOCF3]",909
10,"COC[C@H]1O[C@@H](O[C@@H]2[C@@H](OC)[C@@H](OC)[C@H](O[C@H]3[C@H](Oc4ccc(OC)cc4)O[C@@H](C)[C@H](O)[C@H]3OC)O[C@H]2C)[C@H](O)[C@@H](OC)[C@@H]1O [compound 13, 3,6-di-O-CH3-β-Glcp-(1→4)-2,3-di-O-CH3-α-Rhap-(1→2)-3-O-CH3-α-RhapOPMP]",417
11,"O=C(NCCCCCCCCO[C@H]1O[C@H](CO[C@H]2O[C@H](CO[C@H]3O[C@H](CO)[C@@H](O)[C@@H]3O)[C@@H](O[C@H]3O[C@H](CO)[C@@H](O)[C@@H]3O)[C@@H]2O)[C@@H](O)[C@@H]1O)C(F)(F)F [compound 6, α-Araf-(1→5)-[α-Araf-(1→3)]-α-Araf-(1→5)-α-Araf-octyl-NHCOCF3]",417
12,"O=C(NCCCCCCCCO[C@H]1O[C@H](CO[C@H]2O[C@H](CO[C@H]3O[C@H](CO)[C@@H](O)[C@@H]3O[C@@H]3O[C@H](CO[C@H]4O[C@H](CO)[C@@H](O)[C@H](O)[C@@H]4O)[C@@H](O)[C@@H]3O)[C@@H](O)[C@@H]2O)[C@@H](O)[C@@H]1O)C(F)(F)F [compound 1, α-Manp-(1→5)-β-Araf-(1→2)-α-Araf-(1→5)-α-Araf-(1→5)-α-Araf-octyl-NHCOCF3]",256

# Same assay, conditions: 25° C., pH 7.2, direct ESI-MS assay
row,Molecule,Association constants (Ka) for Gp6
1,"O=C(NCCCCCCCCO[C@H]1O[C@H](CO[C@H]2O[C@H](CO[C@H]3O[C@H](CO)[C@@H](O)[C@@H]3O[C@@H]3O[C@H](CO)[C@@H](O)[C@@H]3O)[C@@H](O)[C@@H]2O)[C@@H](O)[C@@H]1O)C(F)(F)F [compound 4, β-Araf-(1→2)-α-Araf-(1→5)-α-Araf-(1→5)-α-Araf-octyl-NHCOCF3]",NB^3
2,"6-O-CH3-β-Glcp-(1→4)-2,3-di-O-CH3-α-Rhap-(1→2)-3-O-CH3-α-RhapOPMP [compound 14]",NB^3
3,"COc1ccc(OC2OC(C)C(O)C(OC3OC(C)C(O)C(O)C3O)C2OC)cc1 (stereo not drawn) [compound 15, α-Rhap-(1→3)-2-O-CH3-α-RhapOPMP]",NB^3

# Test system: Mycobacterium avium subsp. paratuberculosis ATCC 19851
# Test: Cell binding assay: protein immobilized on gold surface, capture by SEM and fluorescence microscopy
# Conditions: protein immobilized on gold surface, 20 μg/ml (Gp6 also 40 μg/ml)
# Description: (§1) In order to assess mycophage and mycophage RBPs for their use as probes of MAP infection, Gp-10 and Gp-6 were immobilized using an established protocol (Singh et. al. Biosens. Bioelect. 26 131 (2010) and used for the specific bacterial capture. Gold Surfaces were modified by cysteamine hydrochloride followed by activation using 2% gluteraldehyde. The recombinant proteins Gp-10, Gp-6 and Gp-31 were immobilized over the surfaces in order to capture the host bacteria Mycobacterium avium subsp. paratuberculosis ATCC 19851 and Mycobacterium smegmatis mc^2155. Bacterial capture was confirmed by fluorescence microscopy and Scanning Electron Microscopy (SEM). Nonspecific attachment was prevented by using bovine serum albumin (BSA) as the blocking layer. A negative control was run in parallel where a similar gold surface was treated with all reagents, but they were not exposed to the recombinant phage proteins.
# (§2) Proteins were immobilized onto cysteamine covered gold surfaces that were activated with glutaraldehyde according to the previously described protocol where RBP samples were used instead of whole phage particles. Briefly, the gold substrates were fabricated using piranha cleaned silicon substrates by sputtering a 25 nm thick gold layer. The gold substrates were sonicated in acetone, isopropanol, ethanol and MilliQ (Millipore) water for 5 min each prior to their use (Branson Ultrasonics 1510, 40 kHz frequency). The gold substrates were incubated overnight at 40° C. in a 50 mM solution of cysteamine hydrochloride (Sigma-Aldrich). The cysteamine self assembled monolayer (SAM) substrates were modified by 2% glutaraldehyde (Sigma-Aldrich) for 1 hr at room temperature and washed twice in PBS. These modified substrates were incubated in a 20 μg/ml solution of Gp10 (or Gp6) in PBS overnight at […]. The negative control substrate was incubated in PBS only. To block nonspecific binding of bacteria, the substrates were incubated in 1 mg/ml of bovine serum albumin (Sigma-Aldrich) and were washed twice in PBS. The protein covered substrates were exposed to 10^9 cfu/ml of mycobacterial cells in PBS for 1 hr at room temperature. The immobilized surfaces were washed in 0.05 Tween 20 (Sigma-Aldrich) before analysis. For fluorescence microscopy, the bacterial cells were stained with 50 μM resazurin (Sigma-Aldrich) for 20 min before exposure to the substrates covered with the immobilized proteins.
# (§3) Bacterial cell binding to the gold surface covered with the immobilized protein was assessed as described previously. Scanning electron microscopy (SEM) and fluorescent microscopy (FM) were used to estimate the number of bacterial cells bound to the surfaces. The samples were fixed with 2% glutaraldehyde for 2 hrs at room temperature followed by a gradient of ethanol from 50% to 100% before SEM. Finally the samples were dried by nitrogen gas. SEM imaging was performed using a Hitachi S-4800/LEO 1430 microscope. Cells were prestained using 50 μM of resazurin stain (Sigma-Aldrich) for the FM-based binding assay. An Olympus IX81 microscope equipped with a FITC filter and a Roper Scientific Cool-Snaps HQ CCD Camera were Used to Record the FM Images. ImageJ Software (USA NIH) was used to analyze the microscopy images. Average numbers of cells bound to the surface are indicated on the basis of the assessment of the cell number, fields of view, and using 8 gold covered chips per test.
row,Molecule,capture/binding of MAP cells (in words)
1,B1,no significant bacterial capture

# Test system: Mycobacterium smegmatis mc^2155
# Test: as above
# Conditions: protein immobilized on gold surface, 20 μg/ml
# Description: as §1, §2, §3
row,Molecule,capture/binding of M. smegmatis cells (in words)
1,B1,no significant bacterial capture
